In the Kinase Knowledgebase extract (Sharma et al. 2016):

Biological target: MAPK14 (human) (UniProt Q16539)
Assay: Inhibition of MAPK14 Kinase Activity

Chain of MAPK14 (human) (Q16539 whole entry, looked up): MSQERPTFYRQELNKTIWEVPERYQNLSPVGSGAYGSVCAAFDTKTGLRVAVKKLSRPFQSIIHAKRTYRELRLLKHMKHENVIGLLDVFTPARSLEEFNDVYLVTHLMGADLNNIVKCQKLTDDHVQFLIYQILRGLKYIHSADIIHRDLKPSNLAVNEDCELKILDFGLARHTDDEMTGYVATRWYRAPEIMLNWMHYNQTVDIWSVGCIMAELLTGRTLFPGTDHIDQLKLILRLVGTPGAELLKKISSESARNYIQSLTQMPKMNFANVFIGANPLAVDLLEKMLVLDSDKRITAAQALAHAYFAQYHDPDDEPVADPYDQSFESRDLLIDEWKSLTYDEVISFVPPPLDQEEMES

Question: How did the IC50 turn out when O=C(N[C@H]1CCC[C@@H]1O)c1sc2c(ccc(=O)n2-c2ccccc2)c1Nc1ccc(F)cc1F was run?
Answer: < 1000 nM

Question: Cc1cc(Nc2c(C(=O)NC3CNC3)sc3c2ccc(=O)n3-c2ccccc2)ccc1F was tested. Which IC50 did it give?
Answer: < 1000 nM

Question: For CN1CCC(NC(=O)c2sc3c(ccc(=O)n3-c3ccccc3)c2Nc2ccc(F)cc2F)CC1, which IC50 is on record?
Answer: < 1000 nM

Question: With O=C(N[C@@H]1CCNC1)c1sc2c(ccc(=O)n2-c2ccccc2)c1Nc1ccc(F)cc1F as the molecule, how does the IC50 read?
Answer: < 1000 nM

Question: Cc1cc(Nc2c(C(=O)C3CCN(C)CC3)sc3c2ccc(=O)n3-c2ccccc2)ccc1F was tested. Which IC50 did it give?
Answer: < 1000 nM

Question: For O=C(c1sc2c(ccc(=O)n2-c2ccccc2)c1Nc1ccccc1)C1CCNCC1, which IC50 is on record?
Answer: < 1000 nM

Question: For Cc1cc(Nc2c(C(=O)C3CCNCC3)sc3c2ccc(=O)n3-c2ccccc2)ccc1F, which IC50 is on record?
Answer: < 1000 nM

Question: With O=C(NC1CCNCC1)c1sc2c(ccc(=O)n2-c2ccccc2)c1Nc1ccc(F)cc1F as the molecule, how does the IC50 read?
Answer: < 1000 nM

Question: With O=C(NC1CCNC1)c1sc2c(ccc(=O)n2-c2ccccc2)c1Nc1ccc(F)cc1F (stereo unspecified) as the molecule, how does the IC50 read?
Answer: < 1000 nM

Question: Which IC50 does the source give for O=C(c1sc2c(ccc(=O)n2-c2ccccc2)c1Nc1ccc(F)cc1F)C1CCNCC1 here?
Answer: < 1000 nM

Question: For O=C(N[C@@H]1CCC[C@@H]1O)c1sc2c(ccc(=O)n2-c2ccccc2)c1Nc1ccc(F)cc1F, which IC50 is on record?
Answer: < 1000 nM

Question: How did the IC50 turn out when O=C(N[C@@H]1CCC[C@H]1O)c1sc2c(ccc(=O)n2-c2ccccc2)c1Nc1ccc(F)cc1F was run?
Answer: < 1000 nM

Question: How did the IC50 turn out when Cc1cccc(Nc2c(C(=O)C3CCNCC3)sc3c2ccc(=O)n3-c2ccccc2)n1 was run?
Answer: < 1000 nM

Question: How did the IC50 turn out when O=C(N[C@H]1CCNC1)c1sc2c(ccc(=O)n2-c2ccccc2)c1Nc1ccc(F)cc1F was run?
Answer: < 1000 nM

Question: With CN1CC[C@H](NC(=O)c2sc3c(ccc(=O)n3-c3ccccc3)c2Nc2ccc(F)cc2F)C1 as the molecule, how does the IC50 read?
Answer: < 1000 nM

Question: Which IC50 does the source give for CN1CC[C@@H](NC(=O)c2sc3c(ccc(=O)n3-c3ccccc3)c2Nc2ccc(F)cc2F)C1 here?
Answer: < 1000 nM
